Measured values reported in patent publication US20190083498A1, “THERAPIES FOR HEMATOLOGIC MALIGNANCIES” (GILEAD CALISTOGA LLC, priority 2008, published 2019).

Key:
pAKT = pAKT in DLBCL cell lines; assay type: cell-based
over 350 protein kinases = assay: Ambit KINOMEscan kinome-wide protein kinase screen; assay type: binding; details: 10 μM
Excerpt: Examples of some kinases in the screen are shown below in Table 3.

Phospho-Akt = Phospho-Akt production in patient AML cells; assay type: cell-based, human; details: 0.1, 1.0, 10 μM
Excerpt: PI3Kδ is implicated in signaling in AML patient cells.

[1] = system: phospho-AKT (ser473) in INA-6 cells; assay: Bortezomib-induced AKT phosphorylation, western blotting; assay type: cell-based, human; details: compound I 5 μM, bortezomib 5 nM; 6 h
Experimental: Phosphorylation of AKT was determined by western blotting of cell lysates using phospho-AKT (ser473) antibody, FIG. 37B. Actin served as a loading control.

leukemia cell lines = assay: Apoptosis in leukemia cell lines, Annexin V-FITC/7AAD; assay type: cell-based; details: 1 μM or 10 μM; 24 hrs
Experimental: The percentage of apoptotic cells was determined by Annexin V-FITC/7AAD staining.

[2] = system: T47D and HS-578T cell lines; assay: Proliferation of breast cancer cell lines, AlamarBlue; assay type: cell-based; details: with serum
Experimental: T47D and HS-578T cell lines were grown in the presence of serum plus the indicated concentrations of the compound of formula I. Proliferation was measured in triplicate wells by AlamarBlue® assay (Invitrogen) 96-well plates.

[3] = system: cleavage of caspase 3 and PARP; assay: Caspase 3 and PARP cleavage, MSD multi-spot plates; assay type: cell-based; details: 5 or 10 μM; 24 hrs
Experimental: Thereafter, cells were lysed and sized-fractionated and immunoblotted with antibody directed against FLIP, FIG. 29. Additionally, whole cell lysates were added to MDS (Meso Scale Diagnostics) multi-spot 96-well 4 spot plates coated with Total caspase-3, cleaved caspase-3, cleaved PARP, and BSA. Proteins were detected with antibodies labeled with SULFO-TAG reagent and quantified.

[4] = system: T-ALL and B-ALL leukemic cell lines; assay: Viability of ALL cell lines, AlamarBlue; assay type: cell-based; details: 48 hours
Experimental: Viability assays of cell lines were performed using the AlamarBlue assay (Invitrogen). Cells (1×10^6 per well) in a volume of 100 μL were placed in a 96-well flat-bottom plate and the compound of formula I (100 μL per well at 2× final concentration) or medium alone was added to the plates. All were performed in quadruplicate. Cells were incubated for fixed times (48 hours). After the incubation, 10 μL AlamarBlue® was added to each well. Cells were incubated for 4 hours and the optical density at 530-560 nm was obtained using a SpectraMax® M5 plate reader 2001. Cell viability was expressed as a percentage of absorption between treated cells/control sample.

[5] = system: patient chronic lymphocytic leukemia (CLL) cells; assay: Apoptosis of patient CLL cells, Annexin V-FITC/PI flow cytometry; assay type: cell-based, human
Experimental: Peripheral blood was obtained from patients with B-CLL through the CLL Research Consortium from Ohio State University. Primary CD19-positive cells were isolated using Rosette-Sep (StemCell Technologies). Cells were maintained in RPMI 1640 (Invitrogen) supplemented with 10% heat-inactivated fetal bovine serum, 2 mmol/L L-glutamine, and penicillin (100 units/mL)/streptomycin (100 μg/mL; Invitrogen) at 37° C., 5% CO2, and high humidity. After incubation with the compound of formula I or medium for 96 hours, 5×10^5 cells were washed with PBS and then resuspended in binding buffer (10 mmol/L HEPES/NaOH, pH 7.4, 150 mmol/L NaCl 5 mmol/L KCl, 1 mmol/L MgCl2, 1.8 mmol/L CaCl2) containing 2 μL of Annexin V-FITC stock (BioWhittaker, Inc) and 10 μL of 20 μg/mL PI (Sigma). After incubation for 10 minutes at room temperature in a light-protected area, the specimens were quantified by flow cytometry on a FACScan™ (Becton Dickinson).

LB and INA-6 MM cells = assay: Growth inhibition of p110δ-positive MM cell lines, MTT; assay type: cell-based, human; details: 48 h
INA-6 cells [6] = assay: AKT and ERK pathway phosphorylation, immunoblotting; assay type: cell-based, human
Excerpt: (§1) Whole-cell lysates were subjected to sodium dodecyl sulfate-polyacrylamide gel electrophoresis (SDS-PAGE) separation, transferred to Pure Nitrocellulose membranes (Bio-Rad Laboratories, Hercules, Calif.), and immunoblotted with anti-AKT, phospho(p)-AKT (Ser473, Thr 308), ERK1/2 , P-ERK1/2, P-PDK1, STAT, P-STAT, P-FKRHL, P-70S6K, LC3, and PI3K/p110 α Abs (Cell Signaling Danvers, Mass.); anti-p110β, PI3K/p110δ, Glyceraldehyde 3-phosphate dehydrogenase (GAPDH), α-tubulin, and actin Abs (Santa Cruz Biotechnology, Calif.); and anti-p110 γ Ab (Alexis, San Diego, Calif.): and anti-LC3 Ab (Abgent, San Diego, Calif.).
Actin Ab was used as a loading control. […] Whole cell lysates were subjected to immunoblotting using AKT, P-AKT (Ser473 and Thr308), ERK1/2, P-ERK1/2, P-PDK1, and P-FKRHL antibodies. α-tubulin is used as a loading control.

INA-6 cells [7] = assay: Cleavage of caspases and PARP, western blot; assay type: cell-based, human; details: 0-5 μM, 120 h
Excerpt: as §1
Total cell lysates were subjected to immunoblotting using anti-caspase-3, -8, -9, PARP, and α-tubulin Abs. FL indicates full-length protein, and CL indicates cleaved protein.

CC[C@H](Nc1ncnc2[nH]cnc12)c1nc2cccc(F)c2c(=O)n1-c1ccccc1 [Compound I, 5-fluoro-3-phenyl-2-[1-(9H-purin-6-ylamino)-propyl]-3H-quinazolin-4-one]
pAKT levels in DLBCL cell lines (pAKT): reduces pAKT levels
off target activity in kinome-wide protein kinase screen (over 350 protein kinases): failed to detect any activity
off target activity in kinome-wide protein kinase screen (over 350 protein kinases; listed as compound of formula I): little activity
phospho-Akt production in patient AML cells (Phospho-Akt): reduces phopsho-Akt production
induction of phospho-Akt by bortezomib treatment [1]: inhibited
apoptosis in leukemia cell lines (leukemia cell lines): induces apoptosis
proliferation of breast cancer cell lines [2]: inhibits proliferation
cleavage of caspase 3 and PARP [3]: dose dependent response
cellular viability of ALL cell lines [4]: significant reduction in cell viability
cellular viability of ALL cell lines ([4]; listed as compound I): substantial reduction in cellular viability
apoptosis of CLL cells from poor prognosis patients [5]: induced apoptosis was seen
apoptosis of CLL cells from refractory/relapsed patients [5]: induced apoptosis was also seen to be effective
apoptosis of CLL patient cells ([5]; 96 hours): results in apoptosis
cytotoxicity against p110δ-positive MM cells (LB and INA-6 MM cells): induced cytotoxicity
phosphorylation of upstream PDK-1 and downstream FKHRL (INA-6 cells [6]; INA-6 and LB MM cells, 0-6 hours): significantly inhibited
phosphorylation of AKT and ERK1/2 (INA-6 cells [6]; p110δ positive INA-6 cells): significantly blocked
cleavage of caspase-8, caspase-9, caspase-3, and PARP (INA-6 cells [7]): Significantly increased cleavage
